According to publication PMC11597089, “Kratom Alkaloids: A Blood–Brain Barrier Specific Membrane Permeability Assay-Guided Isolation and Cyclodextrin Complexation Study” (Molecules, 2024):

How the values were obtained:
[1] = phase-solubility study, SBE-β-CD DS~6.5; assay type: physicochemical; settings: 30 mM phosphate buffer pH 7.4, room temperature
Procedure: (§1) Based on our ACE measurements, the promising CDs were selected for phase-solubility studies, along with the most widely used CD excipients, to investigate the effect of CD type and its concentration on mitragynine solubility. The experiments were conducted under conditions similar to those in the ACE measurements, applying 30 mM phosphate buffer (pH 7.4) and room temperature.
(§2) UV spectra and chromatograms were recorded at 200–400 nm, and the chromatogram obtained at 226 nm was used for quantitative analyses.
(§3) Solubility measurements were performed according to Higuchi and Connors. To each 1 mg mitragynine sample, the selected cyclodextrins were added. The final concentration of the CDs was in the range of 0–1 (m/v) %. Suspensions were shaken at room temperature for 24 h and filtered using 0.22 μm filters. The mitragynine concentration in the samples was determined by the above-described UHPLC-UV method. The solubility diagrams were constructed, and the stability constant (Kstab) and complexation efficacy (CE) were calculated using the following formulas:(5) Kstab=slope/S0(1−slope) (6) CE=slope/1−slope where S0 is the intrinsic solubility of a poorly soluble drug. The experiments were performed in a 30 mM phosphate buffer (pH 7.4).

[2] = ACE complex stability, S-γ-CD; assay type: physicochemical; settings: sulfated-γ-CD DS~14, 30 mM phosphate buffer pH 7.4, 25 °C
Procedure: To investigate the CD complexation behavior of the four kratom alkaloids, we aimed to develop an ACE method for a systematic comparative study. […] To ensure sufficient buffer capacity and to avoid excessive current and Joule heat generation, the buffer concentration was set to 30 mM, and the applied voltage was 15 kV.
The ACE experiments were performed by using Agilent 7100 and HP^3DCE instruments (Agilent Technologies, Waldbronn, Germany). Untreated fused silica capillaries (total length of 48.5 cm, effective length of 40 cm, inner diameter of 50 μm) were purchased from Agilent Technologies. The new capillaries were conditioned with a 1 M NaOH wash for 1 h, followed by a 30 min wash each with 0.1 M NaOH and purified water. Prior to all runs, the capillary was preconditioned by rinsing with background electrolyte for 3 min. During the measurements, 30 mM phosphate buffer at pH 7.4 (30 mM Na2HPO4-NaOH) was used. The background electrolyte contained CDs at various concentrations. […] The electropherograms were recorded at four wavelengths (200 nm, 210 nm, 215 nm, and 220 nm), and the data were evaluated at 215 nm. […] The measurements were evaluated using Origin and CEval software (v. 0.6i3). […]

[3] = phase-solubility study, CM-β-CD; assay type: physicochemical; settings: 30 mM phosphate buffer pH 7.4, room temperature
Procedure: as §1, §2, §3

[4] = set-up: method as in PMID 25793541; settings: at pH 7; cited from earlier work
[5] = phase-solubility study, HP-β-CD; assay type: physicochemical; settings: 30 mM phosphate buffer pH 7.4, room temperature
Procedure: as §1, §2, §3

[6] = phase-solubility study, SBE-β-CD DS~10.4; assay type: physicochemical; settings: 30 mM phosphate buffer pH 7.4, room temperature
Procedure: as §1, §2, §3

[7] = phase-solubility study, S-β-CD; assay type: physicochemical; settings: 30 mM phosphate buffer pH 7.4, room temperature
Procedure: as §1, §2, §3

## mitragynine
[1]; 24 h, CD 0–1 (m/v) %
  Kstab with SBE-β-CD DS~6.5 (phase solubility): 480 M⁻¹
[1]; phase solubility
  complexation efficacy (CE) with SBE-β-CD DS~6.5: 0.0181
[2]
  complex stability constant (Kstab) with S-γ-CD: 810 ± 75 M⁻¹
[3]; 24 h, CD 0–1 (m/v) %
  Kstab with CM-β-CD (phase solubility): 300 M⁻¹
[3]; phase solubility
  complexation efficacy (CE) with CM-β-CD: 0.0113
[4]
  logD: 1.73
[5]; 24 h, CD 0–1 (m/v) %
  Kstab with HP-β-CD (phase solubility): 30 M⁻¹
[5]; phase solubility
  complexation efficacy (CE) with HP-β-CD: 0.0011
[6]; 24 h, CD 0–1 (m/v) %
  Kstab with SBE-β-CD DS~10.4 (phase solubility): 1020 M⁻¹
[6]; phase solubility
  complexation efficacy (CE) with SBE-β-CD DS~10.4: 0.0382
[7]; 24 h, CD 0–1 (m/v) %
  Kstab with S-β-CD (phase solubility): 340 M⁻¹
[7]; phase solubility
  complexation efficacy (CE) with S-β-CD: 0.0127
